Source: patent US20130230571A1, “MACROCYCLIC LACTONE COMPOUNDS AND METHODS FOR THEIR USE” (Elixir Medical Corporation, priority 2010, published 2013)
pIC50: −log10 of the molar value. “Also recorded” adds a separate entry of the source.

Experiments:
MMP-9 = MMP-9 production by LPS-activated macrophages, ELISA; type: cell-based; conditions: 10 nM
Method: (§1) In cell culture studies, macrophages were activated to secrete cytokines such as MMP-9 and MCP-1 by treating the cells to E Coli lippopolysaccharide (LPS). Inhibition of these cytokines upon treatment of the activated macrophages with myolimus and rapamycin with 10 nM concentration was tested using ELISA assay.

human smooth muscle cell = assay: in vitro human smooth muscle cell culture testing, incorporated thymidine; type: cell-based; conditions: exposure for 8 hours; human smooth muscle cells; read-out: IC50 (incorporated thymidine, anti-proliferative)
Method: The amounts of incorporated thymidine for samples of myolimus of varying concentrations (0.0001, 0.001, 0.01, 0.1, and 1 μM) and of rapamycin of varying concentrations (0.0001, 0.001, 0.01, 0.1, and 1 μM) were measured after exposure for 8 hours (as shown in FIG. 1). The IC50 of both myolimus and rapamycin was 0.1 nM indicating potent anti-proliferative properties.

MCP-1 = MCP-1 production by LPS-activated macrophages, ELISA; type: cell-based; conditions: 10 nM
Method: as §1

[1] = cited from earlier work

| SMILES | production of the cytokine MMP-9 (MMP-9) | production of the cytokine MMP-9 (MMP-9; listed as Myolimus) | pIC50 (human smooth muscle cell) | production of cytokine MCP-1 (MCP-1) | production of cytokine MCP-1 (MCP-1; listed as Myolimus) | solubility in water [1] | production of the cytokine MMP-9 (MMP-9; listed as Rapamycin) |
| --- | --- | --- | --- | --- | --- | --- | --- |
| CO[C@H]1C[C@@H]2CC[C@@H](C)[C@@](O)(O2)C(=O)C(=O)N2CCCC[C@H]2C(=O)O[C@H]([C@H](C)C[C@@H]2CC[C@@H](O)[C@H](OC)C2)CC[C@H](C)/C=C(\C)[C@@H](O)[C@@H](OC)C(=O)[C@H](C)C[C@H](C)/C=C/C=C/C=C/1C [myolimus, 32-deoxo-rapamycin] | inhibiting production of MMP-9 | reduced the production | 10.00 | inhibiting the production | reduced the production | – | – |
| CO[C@H]1C[C@@H]2CC[C@@H](C)[C@@](O)(O2)C(=O)C(=O)N2CCCC[C@H]2C(=O)O[C@H]([C@H](C)C[C@@H]2CC[C@@H](O)[C@H](OC)C2)CC(=O)[C@H](C)/C=C(\C)[C@@H](O)[C@@H](OC)C(=O)[C@H](C)C[C@H](C)/C=C/C=C/C=C/1C [rapamycin, Rapamycin] | increased the production of MMP-9 | – | 10.00 | did not impact the production of MCP-1; also recorded: did not have any impact | – | very slightly soluble in water | increased the production |
